Experimental findings from ChEMBL document CHEMBL1201862, “PubChem BioAssay data set” (2004) are described below.

Test in all cases: inhibition of tumour cell growth, NCI panel, 48 h
Experiment [1] concerns A498.
For experiment [2], the system named is HCT-116.
Experiment [3] relates to HOP-62.
In experiment [4] the test system is HOP-92.
Experiment [5] relates to M14.
Experiment [6] deals with MOLT-4.
Experiment [7] relates to NCI-H226.
Experiment [8] concerns OVCAR-3.
The test system of experiment [9] is OVCAR-4.
Experiment [10] relates to RPMI-8226.
The subject of experiment [11] is SF-295.
The subject of experiment [12] is SF-539.
For experiment [13], the system named is SK-MEL-28.
Experiment [14] concerns SK-MEL-2.
The subject of experiment [15] is SK-MEL-5.
In experiment [16] the test system is SNB-75.
Experiment [17] relates to TK-10.
Experiment [18] relates to U-251.
In experiment [19] the test system is UACC-62.

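How tested: cells in 96-well plates exposed to compound for 48 hours at five concentrations. Abbreviation: GI50, concentration required for 50% inhibition of growth.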 Activity calls are given as the source filed them. No stated cut-off is given here; in the data, active = GI50 up to about 1.1 µM and inactive = higher.

Regarding `COc1ccc2nc(-c3ccc(O)cc3)cc(O)c2c1`, the GI50 was 0.269 µM (active) in [1]; 0.977 µM (active) in experiment [2]; 1.42 µM (inactive) in [3]; 0.631 µM (active) in experiment [4]; 0.857 µM (active) in experiment [5]; 1.41 µM (inactive) in experiment [6]. For the same compound, the GI50 in experiment [7] is 0.959 µM (active); in experiment [8], 0.887 µM (active); in experiment [9], 5.12 µM (inactive); in experiment [10] it was 1.65 µM (inactive); in [11], 2.1 µM (inactive); in experiment [12] it was 0.826 µM (active). Moreover, the GI50 was 1.15 µM (inactive) in experiment [13]; 0.679 µM (active) in experiment [14]; 0.714 µM (active) in experiment [15]; 0.434 µM (active) in experiment [16]; 8.97 µM (inactive) in [17]; 0.718 µM (active) in experiment [18]. Besides, the GI50 in experiment [19] was 0.697 µM (active).

For `O=C1OC(c2ccccc2)=N/C1=C/NC(Cc1ccc(O)cc1)C(=O)O` (stereo not given), the GI50 in [1], in [2], in experiment [3], in experiment [4], in [5] and in experiment [7] was > 100 µM (inactive) each time. Further, the GI50 in experiment [8], in experiment [9], in experiment [10], in [11], in [12] and in experiment [13] was > 100 µM (inactive) throughout. Besides, the GI50 in experiment [14], in [15], in experiment [16], in [17] and in experiment [18] was > 100 µM (inactive) throughout.

Consider `O=C(Nc1ccc(Cl)cc1Cl)C1C(=O)N(c2ccc(Cl)cc2Cl)C(=O)/C1=N\Nc1ccc([N+](=O)[O-])cc1[N+](=O)[O-]` (stereo not given), for which the GI50 is 47.5 µM (inactive) in experiment [1]; 26.9 µM (inactive) in [2]; 45.8 µM (inactive) in [3]; 23.3 µM (inactive) in experiment [4]; 52 µM (inactive) in experiment [5]; 22 µM (inactive) in [6]. Moreover, the GI50 in experiment [7] was 39.6 µM (inactive); in experiment [8], 47.2 µM (inactive); in experiment [9] it was 43.5 µM (inactive); in experiment [10], 22.7 µM (inactive); in experiment [11] it was 45.3 µM (inactive); in [12] it was 36.6 µM (inactive). Further, the GI50 is 47.8 µM (inactive) in experiment [13]; 42.9 µM (inactive) in [14]; 79.8 µM (inactive) in [15]; 27.3 µM (inactive) in experiment [16]; > 100 µM (inactive) in experiment [17]; 48.8 µM (inactive) in experiment [18]. For the same compound, the GI50 in experiment [19] is 15.8 µM (inactive).

Consider `CC(C)NC(=O)OCCN=C1c2ccccc2C(Br)C(Br)c2ccccc21` (stereo not given), for which the GI50 in [1] is 1.62 µM (inactive); in [2] it was 7.01 µM (inactive); in experiment [3], 14.5 µM (inactive); in [4] it was 5.3 µM (inactive); in experiment [5], 8.65 µM (inactive); in [6] it was 6.19 µM (inactive). In addition, the GI50 in experiment [7] was 15.6 µM (inactive); in [8], 12.1 µM (inactive); in [9] it was 6.93 µM (inactive); in experiment [10], 7.83 µM (inactive); in experiment [11], 19 µM (inactive); in [12], 4.02 µM (inactive). In addition, the GI50 was 13.2 µM (inactive) in experiment [13]; 23.7 µM (inactive) in experiment [14]; 7.19 µM (inactive) in experiment [15]; 8.04 µM (inactive) in experiment [16]; 5.87 µM (inactive) in experiment [17]; 10 µM (inactive) in experiment [18]. Also, the GI50 in experiment [19] was 10.1 µM (inactive).

Consider `NC1=CN(Cc2ccccc2)C2=N/C(=C\c3ccccc3)C(=O)N12`, for which the GI50 in experiment [1] is > 100 µM (inactive); in [2], > 100 µM (inactive); in experiment [3], > 100 µM (inactive); in [4] it was > 100 µM (inactive); in experiment [5], > 100 µM (inactive); in experiment [6] it was 97.3 µM (inactive). Also, the GI50 in [7] was > 100 µM (inactive); in experiment [8], > 100 µM (inactive); in experiment [9] it was 38.2 µM (inactive); in experiment [10], 71.3 µM (inactive); in experiment [11], > 100 µM (inactive); in experiment [12], > 100 µM (inactive). In addition, the GI50 in experiment [13] is > 100 µM (inactive); in experiment [14], > 100 µM (inactive); in experiment [15] it was 66.5 µM (inactive); in experiment [16] it was > 100 µM (inactive); in [17] it was > 100 µM (inactive); in experiment [18], > 100 µM (inactive). In experiment [19], the GI50 is > 100 µM (inactive).

In the case of `CCOC(=O)C1=C(C)C2C3C(=O)OC(=O)C3C1(C)C1C(=O)OC(=O)C21` (stereo not given), the GI50 in experiment [1], in experiment [2], in experiment [3], in [4], in [5] and in experiment [6] was > 100 µM (inactive) each time. Besides, the GI50 in experiment [7], in experiment [8], in experiment [9], in experiment [10], in experiment [11] and in experiment [12] was > 100 µM (inactive) in each case. The GI50 in experiment [13], in experiment [14], in experiment [15], in [16], in experiment [17] and in experiment [18] was > 100 µM (inactive) each time. Besides, the GI50 in experiment [19] was > 100 µM (inactive).

As for `Cc1ccc(S(=O)(=O)N2CCSCCSCCSCCN(S(=O)(=O)c3ccc(C)cc3)CC2)cc1`, the GI50 in [1], in experiment [2], in experiment [3], in [4], in [5] and in [6] was > 100 µM (inactive) throughout. In addition, the GI50 in [7], in [8], in experiment [9], in experiment [10], in experiment [11] and in [12] was > 100 µM (inactive) throughout. Moreover, the GI50 in experiment [13] is > 100 µM (inactive); in experiment [14] it was > 100 µM (inactive); in [15], > 100 µM (inactive); in experiment [16], 61 µM (inactive); in [17], > 100 µM (inactive); in experiment [18] it was > 100 µM (inactive). In experiment [19], the GI50 is > 100 µM (inactive).

Consider `OC1=CN=C(C2CC2)Oc2ccccc21`, for which the GI50 in [1] is > 100 µM (inactive); in [2], > 100 µM (inactive); in experiment [3], > 100 µM (inactive); in experiment [4], 96.2 µM (inactive); in [5], > 100 µM (inactive); in [6] it was > 100 µM (inactive). For the same compound, the GI50 in [7] is 15.5 µM (inactive); in experiment [8] it was > 100 µM (inactive); in experiment [9], 85.3 µM (inactive); in experiment [10], > 100 µM (inactive); in [11], 83.2 µM (inactive); in experiment [12] it was > 100 µM (inactive). Moreover, the GI50 in [13], in experiment [14], in experiment [15], in experiment [16], in experiment [17] and in experiment [18] was > 100 µM (inactive) each time. Further, the GI50 in experiment [19] was 98.6 µM (inactive).
